{"source": "patent US20220202799A1", "about": "“PHARMACEUTICAL FORMULATIONS CONTAINING P2Y14 ANTAGONISTS” (priority 2019, published 2022)", "key": {"[1]": {"experiment": "Solubility of PPTN in SBECD-containing saline solutions", "format": "physicochemical", "conditions": "9 mg/mL PPTN (HCl salt) in 12% SBECD/saline; room temperature for 28 days", "protocol": "Sulfobutylether-β-cyclodextrin (SBECD) was tested for the ability to increase the solubility of PPTN in aqueous media.\nA stock solution containing 12% SBECD was prepared as follows: 9 mL of saline was added to 1.21 g of SBECD in a 10 mL flask, and the mixture was sonicated for 5 minutes. Saline was then added to achieve a final volume of 10 mL. The pH of the final solution was about 7.\nThe solubility of PPTN in solutions containing various concentrations of SBECD was analyzed. Excess PPTN was added to saline solutions containing various concentrations of SBECD, insoluble material was removed by filtration, and the PPTN concentration in the filtered solution was analyzed.\nA solution containing 9 mg/mL PPTN was prepared as follows. 4.7 mL of 12% SBECD solution, prepared as described above, was added to a 5 mL flask containing 45 mg PPTN (HCl salt), and the mixture was sonicated with heat for 50 minutes. After sonication, 12% SBECD solution to achieve a final volume of 5 mL. The warm solution appeared clear. The solution was allowed to cool to room temperature and was incubated at room temperature for 28 days."}, "[2]": {"experiment": "Urine concentrations, 72-hour continuous intravenous infusion", "format": "in vivo, Sprague-Dawley rats", "conditions": "individual animals; for Total amount in urine: all intervals", "protocol": "The safety and pharmacokinetics of PPTN (KB-1801) in rats receiving continuous intravenous injections of SBECD-containing solutions were analyzed. Three cohorts of six male and six female rats each were given continuous intravenous infusion of PPTN (KB-1801) at 10 mg/kg/day, 30 mg/kg/day or 100 mg/kg/day in a dosing solution containing PPTN at 0.25 mg/mL, 0.75 mg/mL or 2.5 mg/mL and SBECD at about 3.8%. Dosing volume was 40 mIkg/day."}, "[3]": {"experiment": "Solubility of PPTN in various aqueous and organic solvents", "format": "physicochemical", "conditions": "thermodynamic from solid, PPTN HCl salt, room temperature, read-out: Solubility Estimate", "protocol": "The solubility of PPTN in various aqueous and organic solvents was tested. Test media were prepared, and 5 mg/mL solid PPTN (HCl salt) was added at room temperature. If all PPTN dissolved under these conditions, additional PPTN was added to a total of 10 mg/mL. After 24 hours, undissolved material was removed, and the concentration of PPTN in the supernatant was analyzed by HPLC."}, "[4]": {"experiment": "Stability of PPTN in SBECD-containing solution under various storage conditions (UHPLC-UV)", "format": "physicochemical", "conditions": "9 mg/mL PPTN, 12% SBECD; for [PPTN]: in mg/mL", "protocol": "The stability of PPTN in SBECD-containing solutions was analyzed under various storage conditions. 20-mL glass vials containing 10 mL of a solution containing 9 mg/mL PPTN and 12% SBECD, as described above, were incubated under various conditions as described in Table 10.\nSamples were analyzed by UHPLC-UV as described in Table 11."}, "[5]": {"conditions": "72-hour IV infusion 10 mg/kg/day, male rats, interval 0-4 h"}, "[6]": {"conditions": "72-hour IV infusion 10 mg/kg/day, male rats, interval 4-9 h"}, "[7]": {"conditions": "72-hour IV infusion 10 mg/kg/day, male rats, interval 20-24 h"}, "[8]": {"conditions": "72-hour IV infusion 10 mg/kg/day, male rats, interval 44-48 h"}, "[9]": {"conditions": "72-hour IV infusion 10 mg/kg/day, male rats, interval 68-72 h"}, "[10]": {"conditions": "72-hour IV infusion 10 mg/kg/day, male rats, interval 92-96 h"}}, "note": "Where “and” joins values, the source holds several entries; their conditions need not be identical. Equal entries are not always repeated. Where two headings read alike, the source gives them in different places. Marks after values point to notes of the source that are not given here."}
{"smiles": "O=C(O)c1cc(-c2ccc(C3CCNCC3)cc2)c2ccc(-c3ccc(C(F)(F)F)cc3)cc2c1", "note": "[KB-1801, 4-[4-(piperidin-4-yl)phenyl]-7-[4-(trifluoromethyl)phenyl]-2-naphthoic acid]", "values": [{"measurement": "Solution appearance", "setting": "[1]", "value": "remained clear throughout the entire incubation"}, {"measurement": "Total amount in urine", "setting": "[2]; 72-hour IV infusion 10 mg/kg/day, female rats", "value": "27.3 µg and 16.4 µg and 10.5 µg and 18.5 µg and 20.9 µg and 29.4 µg"}, {"measurement": "Total amount in urine", "setting": "[2]; 72-hour IV infusion 10 mg/kg/day, male rats", "value": "54.2 µg and 46.1 µg and 62.5 µg and 83.7 µg and 74.4 µg and 60.9 µg"}, {"measurement": "Amount in urine", "setting": "[2]; [5]", "value": "6.09 µg and 4.08 µg"}, {"measurement": "Urine Conc.", "setting": "[2]; [5]", "value": "6.09 µg/mL and 8.16 µg/mL and 3.50 µg/mL and 7.91 µg/mL"}, {"measurement": "Amount in urine", "setting": "[2]; [6]", "value": "11.5 µg and 5.46 µg and 8.50 µg and 6.95 µg"}, {"measurement": "Urine Conc.", "setting": "[2]; [6]", "value": "7.64 µg/mL and 5.46 µg/mL and 17.0 µg/mL and 6.95 µg/mL and 15.8 µg/mL"}, {"measurement": "Amount in urine", "setting": "[2]; [7]", "value": "20.7 µg and 10.0 µg and 7.20 µg and 30.9 µg"}, {"measurement": "Urine Conc.", "setting": "[2]; [7]", "value": "20.7 µg/mL and 20.1 µg/mL and 24.0 µg/mL and 10.3 µg/mL and 19.4 µg/mL"}, {"measurement": "Amount in urine", "setting": "[2]; [8]", "value": "2.48 µg and 14.1 µg and 22.9 µg"}, {"measurement": "Urine Conc.", "setting": "[2]; [8]", "value": "24.8 µg/mL and 14.1 µg/mL and 45.9 µg/mL and 13.7 µg/mL"}, {"measurement": "Amount in urine", "setting": "[2]; [9]", "value": "19.3 µg and 23.2 µg and 28.5 µg and 22.7 µg"}, {"measurement": "Urine Conc.", "setting": "[2]; [9]", "value": "19.3 µg/mL and 23.2 µg/mL and 28.5 µg/mL and 22.7 µg/mL and 20.9 µg/mL"}, {"measurement": "Amount in urine", "setting": "[2]; [10]", "value": "0.07 µg and 0.15 µg and 1.23 µg and 0.08 µg and 0.18 µg"}, {"measurement": "Urine Conc.", "setting": "[2]; [10]", "value": "0.13 µg/mL and 0.10 µg/mL and 0.62 µg/mL and 0.20 µg/mL and 0.09 µg/mL and 0.07 µg/mL"}, {"measurement": "Total amount in urine", "setting": "[2]; 72-hour IV infusion 30 mg/kg/day, female rats", "value": "75.7 μg and 78.9 μg (2×) and 66.9 μg and 80.5 μg and 131.7 μg"}, {"measurement": "Total amount in urine", "setting": "[2]; 72-hour IV infusion 30 mg/kg/day, male rats", "value": "188.0 µg and 165.1 µg and 250.3 µg and 108.4 µg and 87.4 µg and 332.4 µg"}, {"measurement": "Total amount in urine", "setting": "[2]; 72-hour IV infusion 100 mg/kg/day, female rats", "value": "251.8 µg and 191.6 µg and 78.7 µg and 198.3 µg and 151.4 µg and 353.9 µg"}, {"measurement": "Total amount in urine", "setting": "[2]; 72-hour IV infusion 100 mg/kg/day, male rats", "value": "337.1 µg and 155.1 µg and 785.2 µg and 453.6 µg and 537.2 µg and 438.9 µg"}, {"measurement": "solubility at 24 h", "setting": "[3]; organic solvent or mixture, DMAc, pH 1-2", "value": "> 100", "unit": "mg/mL"}, {"measurement": "solubility at 24 h", "setting": "[3]; organic solvent or mixture, NMP, pH 1-2", "value": "> 100", "unit": "mg/mL"}, {"measurement": "solubility at 24 h", "setting": "[3]; organic solvent or mixture, PEG 400, pH ~2", "value": "~25", "unit": "mg/mL"}, {"measurement": "solubility at 24 h", "setting": "[3]; organic solvent or mixture, ethanol, pH ~2", "value": "25 to 30", "unit": "mg/mL"}, {"measurement": "solubility at 24 h", "setting": "[3]; organic solvent or mixture, propylene glycol, pH ~2", "value": "40 to 50", "unit": "mg/mL"}, {"measurement": "solubility at 24 h", "setting": "[3]; water with 1% DMAc, water w/ 1% DMAc, pH 2-3, 24 hours", "value": "0.1 to 0.5", "unit": "mg/mL"}, {"measurement": "[PPTN]", "setting": "[4]; 2-5° C., 1d", "value": 8.74}, {"measurement": "[PPTN]", "setting": "[4]; 2-5° C., 7d", "value": 8.69}, {"measurement": "[PPTN]", "setting": "[4]; 2-5° C., 14d", "value": 8.98}, {"measurement": "[PPTN]", "setting": "[4]; 2-5° C., 28d", "value": 8.65}, {"measurement": "[PPTN]", "setting": "[4]; 25° C., 0d", "value": 8.72}, {"measurement": "[PPTN]", "setting": "[4]; 25° C., 1d", "value": 8.75}, {"measurement": "[PPTN]", "setting": "[4]; 25° C., 7d", "value": 8.82}, {"measurement": "[PPTN]", "setting": "[4]; 25° C., 14d", "value": 8.69}, {"measurement": "[PPTN]", "setting": "[4]; 25° C., 28d", "value": 8.71}, {"measurement": "[PPTN]", "setting": "[4]; 40° C., 1d", "value": 8.71}, {"measurement": "[PPTN]", "setting": "[4]; 40° C., 7d", "value": 8.71}, {"measurement": "[PPTN]", "setting": "[4]; 40° C., 14d", "value": "9.25**"}, {"measurement": "[PPTN]", "setting": "[4]; 40° C., 28d", "value": 8.73}, {"measurement": "Degradants in UHPLC-UV trace", "setting": "[4]; 40° C., 28 days", "value": "No degradants were evident"}, {"measurement": "[PPTN]", "setting": "[4]; 50° C., 1d", "value": 8.78}, {"measurement": "[PPTN]", "setting": "[4]; −20° C., 1d (freeze/thaw)", "value": "9.0*"}]}
